Experimental data published in patent US12594346B2, “Crosslinked hydrogel for immune checkpoint blockade delivery” (GEORGIA TECH RESEARCH CORPORATION, priority 2020, dated 2026).

Assay: Biotin-4-fluorescein (B4F) competition assay, binding affinity of chimeric proteins
Details: room temperature

binding behavior to biotin-4-fluorescein (fluorescence intensity, binding curve fits): equivalent binding behavior
Substance: commercial streptavidin: streptavidin (MP Biomedicals) [reference compound]
